According to the supplement of paper PMC10331698:
± gives the standard deviation of the averaged measurements.

What was measured:
Assay in all cases: level (log10 ratio to DMSO vehicle control); higher = higher biomarker level / cell amount than vehicle control
Settings in all cases: in DMSO
[1] = compound: FC(F)(F)C(F)(F)C(F)(F)C(F)(F)C(F)(F)C(F)(F)CC1CO1 [3-(Perfluorohexyl)-1,2-epoxypropane]
Procedure: (§1)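 BioMAP Diversity Plus panel of 12 human primary cell co-culture systems (3C, 4H, LPS, SAg, BT, BF4T, BE3C, CASM3C, HDF3CGF, KF3CT, MyoF, Mphg). Compounds were added 1 h before stimulation and left for 24 h (MyoF 48 h; BT 72 h for soluble read-outs or 6 d for IgG). Biomarkers were read by ELISA, cytotoxicity by SRB, PBMC viability and proliferation by Alamar Blue. Each well value was divided by the mean of 8 DMSO control wells on the same plate and log10 transformed; duplicate blinded samples were tested at 4 concentrations.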

[2] = compound: FC(F)(F)C(F)(F)CNCC(F)(F)C(F)(F)F [Bis(1H,1H-perfluoropropyl)amine]
Procedure: as §1

Octafluoroadipamide = compound: NC(=O)C(F)(F)C(F)(F)C(F)(F)C(F)(F)C(N)=O [Octafluoroadipamide]
Procedure: as §1

[3] = compound: NC(=O)C(F)(F)C(F)(F)C(F)(F)C(F)F
Procedure: as §1

[4] = compound: O=S(=O)(O)CCC(F)(F)C(F)(F)C(F)(F)C(F)(F)C(F)(F)C(F)(F)F [6:2 Fluorotelomer sulfonic acid]
Procedure: as §1

| Test System | level (log10) ([1]; 6700 nM) | level (log10) ([1]; 20000 nM) | level (log10) ([1]; 60000 nM) | level (log10) ([2]; 6700 nM) | level (log10) ([2]; 20000 nM) | level (log10) ([2]; 60000 nM) | level (log10) (Octafluoroadipamide; 6700 nM) | level (log10) (Octafluoroadipamide; 20000 nM) | level (log10) (Octafluoroadipamide; 60000 nM) | level (log10) ([3]; 6700 nM) | level (log10) ([3]; 20000 nM) | level (log10) ([3]; 60000 nM) | level (log10) ([4]; 6700 nM) | level (log10) ([4]; 20000 nM) | level (log10) ([4]; 60000 nM) |
| --- | --- | --- | --- | --- | --- | --- | --- | --- | --- | --- | --- | --- | --- | --- | --- |
| CASM3C:CXCL8/IL-8 | 0.011 ± 0.016 | 0.011 ± 0.0099 | 0.0295 ± 0.025 | -0.0065 ± 0.0092 | -0.005 ± 0.014 | 0.003 ± 0.027 | -0.007 ± 0.035 | 0.005 ± 0.0028 | -0.005 ± 0.031 | -0.006 | -0.006 | 0.004 ± 0.031 | 0.007 ± 0.0042 | -0.016 ± 0.011 | 0.0185 ± 0.019 |
| CASM3C:CXCL9/MIG | -0.014 ± 0.025 | -0.007 ± 0.016 | 0.0005 ± 0.026 | 0.0175 ± 0.025 | 0.006 ± 0.0014 | -0.0065 ± 0.069 | 0.0115 ± 0.053 | -0.004 ± 0.014 | 0.0215 ± 0.037 | -0.0075 ± 0.021 | -0.0055 ± 0.0035 | 0.0005 ± 0.0078 | -0.0445 ± 0.0078 | -0.0315 ± 0.0035 | -0.015 ± 0.045 |
| CASM3C:HLA-DR | -0.016 ± 0.027 | -0.033 ± 0.0071 | 0.009 ± 0.057 | -0.013 ± 0.0057 | -0.0105 ± 0.0021 | 0.015 ± 0.058 | -0.0105 ± 0.022 | -0.019 ± 0.0057 | 0.01 ± 0.018 | -0.0125 ± 0.042 | -0.0075 ± 0.016 | -0.008 ± 0.0014 | 0.0245 ± 0.005 | -0.0115 ± 0.0035 | -0.001 ± 0.0085 |
| CASM3C:M-CSF | -0.0025 ± 0.012 | -0.0125 ± 0.011 | 0.0325 ± 0.056 | 0.006 ± 0.016 | -0.005 ± 0.016 | 0.0115 ± 0.028 | -0.0095 ± 0.0078 | -0.01 ± 0.0085 | -0.0065 ± 0.0092 | -0.0485 ± 0.021 | -0.0535 ± 0.046 | 0.019 ± 0.082 | -0.011 ± 0.044 | -0.002 ± 0.0085 | 0.002 ± 0.037 |
| HDF3CGF:CCL2/MCP-1 | -0.0165 ± 0.0021 | -0.0045 ± 0.019 | 0.0055 ± 0.03 | -0.032 ± 0.023 | -0.021 ± 0.011 | 0.014 ± 0.031 | 0.003 | -0.019 ± 0.028 | -0.0115 ± 0.005 | -0.017 ± 0.054 | -0.004 ± 0.04 | 0.0095 ± 0.028 | 0.0075 ± 0.019 | 0.0085 ± 0.021 | 0.008 ± 0.014 |
| HDF3CGF:CD54/ICAM-1 | -0.01 ± 0.018 | -0.0095 ± 0.0092 | -0.021 ± 0.034 | 0.026 ± 0.018 | 0.033 ± 0.0085 | 0.0405 ± 0.018 | 0.011 ± 0.027 | 0.043 ± 0.0099 | 0.055 ± 0.073 | -0.0045 ± 0.0064 | 0.0045 ± 0.0035 | 0.001 ± 0.0071 | -0.0085 ± 0.011 | -0.007 ± 0.011 | -0.029 ± 0.014 |
| HDF3CGF:CD106/VCAM-1 | -0.001 ± 0.025 | -0.01 ± 0.0057 | -0.057 ± 0.016 | 0.017 ± 0.017 | 0.0115 ± 0.013 | 0.009 ± 0.0085 | -0.0005 ± 0.012 | -0.0165 ± 0.035 | 0.01 ± 0.0099 | -0.0285 ± 0.019 | -0.014 ± 0.024 | -0.04 ± 0.078 | 0.034 ± 0.11 | 0.034 ± 0.093 | 0.0135 ± 0.064 |
| HDF3CGF:CXCL8/IL-8 | -0.0175 ± 0.0035 | 0.005 ± 0.0028 | 0.0145 ± 0.0064 | -0.003 | -0.011 ± 0.0042 | 0.007 ± 0.016 | 0.006 ± 0.017 | 0.0045 ± 0.0092 | 0.007 ± 0.0028 | -0.0085 ± 0.0035 | 0.0015 ± 0.0078 | 0.0045 ± 0.018 | -0.01 ± 0.014 | -0.007 ± 0.013 | 0.008 ± 0.037 |
| HDF3CGF:CXCL9/MIG | 0.0095 ± 0.0092 | 0.0085 ± 0.016 | -0.0085 ± 0.013 | -0.002 ± 0.0028 | -0.0025 ± 0.018 | 0.004 ± 0.024 | -0.006 ± 0.0014 | -0.0055 ± 0.015 | 0.016 ± 0.025 | 0.0055 ± 0.00071 | -0.0065 ± 0.012 | -0.0025 ± 0.0035 | -0.013 ± 0.048 | -0.0395 ± 0.018 | -0.046 ± 0.038 |
| HDF3CGF:Collagen I | -0.001 ± 0.025 | -0.0145 ± 0.012 | 0.0545 ± 0.04 | -0.0295 ± 0.015 | -0.015 ± 0.017 | 0.0085 ± 0.056 | -0.005 ± 0.0057 | -0.015 ± 0.033 | 0.0045 ± 0.042 | -0.005 ± 0.058 | 0.005 ± 0.021 | 0.027 ± 0.02 | -0.031 ± 0.095 | -0.007 ± 0.086 | 0.056 ± 0.11 |
